# Results published in US20040014634A1, “Thieno[2,3-d]pyrimidinediones and their use as pharmaceuticals” (priority 2000, published 2004).
# Where a name gives a salt, the structure may show the parent alone.
row,Structure (SMILES),melting point [°C]
1,"CC(C)Cn1c(=O)n(C)c(=O)c2c(Sc3cccs3)c(CN3C(=O)c4ccccc4C3=O)sc21 [Example 54, 6-[(1,3-Dihydro-1,3-dioxo-2H-isoindol-2-yl)methyl]-3-methyl-1-(2-methylpropyl)-5-(2-thienylthio)-thieno[2,3-d]pyrimidine-2,4(1H,3H)-dione]",163
2,"Cc1n[nH]c(Sc2c(Cc3ccccc3C(F)(F)F)sc3c2c(=O)n(C)c(=O)n3CC(C)C)n1 (as salt: hydrochloride) [Example 30, 3-Methyl-1-(2-methylpropyl)-5-[(5-methyl-1H-1,2,4-triazol-3yl)thiol-6-[[2-(trifluoromethyl)phenyl]methyl]-thieno[2,3-d]pyrimidine-2,4(1H,3H)-dione dihydrochloride]",154
3,"CC(C)Cn1c(=O)n(C)c(=O)c2c(Sc3n[nH]c(=O)[nH]3)c(Cc3ccccc3C(F)(F)F)sc21 [Example 41, 3-Methyl-1-(2-methylpropyl)-5-[(5-oxo-4,5-dilydro-1H-1,2,4-triazol-3-yl)thio]-6-[2-(trifluoromethyl)phenylmethyl]-thieno[2,3-d]pyrimidine-2,4(1H,3H)-dione]",205 to 211
4,"CC(C)Cn1c(=O)n(C)c(=O)c2c(Sc3nnc(N)s3)c(Cc3ccccc3C(F)(F)F)sc21 [Example 33, 5-[(5-Amino-1,3,4-thiadiazol-2-yl)thio]-3-methyl-1-(2-methylpropyl)-6-[2-(trifluoromethyl)benzyl]-thieno[2,3-d]pyrimidine-2,4(1H,3H)-dione]",236 to 237
5,"CC(C)Cn1c(=O)n(C)c(=O)c2c(Sc3ncc[nH]3)c(C(=O)c3ccccc3C(F)(F)F)sc21 [Example 22, 5-(1H-Imidazol-2-ylthio)-3-methyl-1-(2-methylpropyl)-6-[2-(trifluoromethyl)bezoyl]-thieno[2,3-d]pyrimidine-2,4(1H,3H)-dione]",123 to 127
6,"CC(C)Cn1c(=O)n(C)c(=O)c2c(Sc3nccs3)c(Cc3ccccc3C(F)(F)F)sc21 [Example 29, 3-Methyl-1-(2-methylpropyl)-5-(2-thiazolylthio)-6-[[2-(trifluoromethyl)-phenyl]methyl]-thieno[2,3-d]pyrimidine-2,4(1H,3H)-dione]",141 to 144
7,Cc1nc(Sc2c(C(=O)c3ccccc3C(F)(F)F)sc3c2c(=O)n(C)c(=O)n3CC(C)C)n[nH]1 [Example 18],220 to 222
8,"CC(C)Cn1c(=O)n(C)c(=O)c2c(Sc3nccs3)c(C(O)c3ccnc4ccccc34)sc21 (centres unmarked) [Example 49, 6-[Hydroxy-(4-quinolinyl)-methyl]-3-methyl-1-(2-methylpropyl)-5-(1,3-thiazol-2-ylthio)-thieno[2,3-d]pyrimidine-2,4(1H,3H)-dione]",182.8 to 184
9,CC(C)Cn1c(=O)n(C)c(=O)c2c(Sc3nc(Br)n[nH]3)c(Cc3ccccc3C(F)(F)F)sc21 [Example 40],174 to 175
10,"CC(C)Cn1c(=O)n(C)c(=O)c2c(Sc3ncc[nH]3)c(Cc3ccccc3C(F)(F)F)sc21 [Example 31, 5-(1H-Imidazol-2-ylthio)-3-methyl-1-(2-methylpropyl)-6-[[2-(trifluoromethyl)phenyl]methyl]-thieno[2,3-d]pyrimidine-2,4(1H,3H)-dione]",221 to 225
11,"CC(C)Cn1c(=O)n(C)c(=O)c2c(Sc3nccs3)c(C(=O)c3ccnc4ccccc34)sc21 [Example 48, 3-Methyl-1-(2-methylpropyl)-6-(4-quinolinylcarbonyl)-5-(1,3-thiazol-2-ylthio)-thieno[2,3-d]pyrimidine-2,4(1H,3H)-dione]",166.8 to 167.6
12,"CC(C)Cn1c(=O)n(C)c(=O)c2c(Sc3nncs3)c(Cc3ccccc3C(F)(F)F)sc21 [Example 32, 3-Methyl-1-(2-methylpropyl)-5-(1,3,4-thiadiazol-2-ylthio)-6-[2-(trifluoromethyl)benzyl]-thieno[2,3-d]pyrimidine-2,4(1H,3H)dione]",169 to 170
13,"CC(C)Cn1c(=O)n(C)c(=O)c2c(Sc3nnc[nH]3)c(Cc3csc4ccccc34)sc21 [Example 50, 6-(1-Benzothien3-ylmethyl)-3-methyl-1-(2-methylpropyl)-5-(4H-1,2,4-triazol-3-ylthio)-thieno[2,3-d]pyrimidine-2,4(1H,3H)-dione]",237 to 238.2
14,CC(C)Cn1c(=O)n(C)c(=O)c2c(Sc3cccs3)c(Cn3cnc4ccccc43)sc21 [Example 51],198
15,"CC(C)Cn1c(=O)n(C)c(=O)c2c(S(=O)(=O)c3nc[nH]n3)c(C(O)c3ccccc3C(F)(F)F)sc21 (centres unmarked) [Example 37, 6-[Hydroxy[2-(trifluoromethyl)phenyl]methyl]-3-methyl-1-(2-methylpropyl)-5-(1H-1,2,4-triazol-3-ylsulfonyl)-thieno[2,3-d]pyrimidine-2,4(1H,3H)-dione]",198 to 202
16,"CC(C)Cn1c(=O)n(C)c(=O)c2c(Sc3nc[nH]n3)c(Cc3ccccc3C(F)(F)F)sc21 [Example 13, 3-Methyl-1-(2-methylpropyl)-5-(1H-1,2,4-triazol-3-ylthio)-6-[[2-(trifluoromethyl)phenyl]methyl]-thieno[2,3-d]pyrimidine-2,4(1H,3H)-dione]",186 to 187
17,"CC(C)Cn1c(=O)n(C)c(=O)c2c(S(=O)(=O)c3nncs3)c(Cc3ccccc3C(F)(F)F)sc21 [Example 39, 3-Methyl-1-(2-methylpropl)-5-(1,3,4-thiadiazol-2-ylsulfonyl)-6-[2-(trifluoromethyl)benzyl]-thieno[2,3-d]pyrimidine-2,4(1H,3H)-dione]",148 to 149
